From publication PMC5447021, “TNF Lectin-Like Domain Restores Epithelial Sodium Channel Function in Frameshift Mutants Associated with Pseudohypoaldosteronism Type 1B” (Frontiers in Immunology, 2017)
“Also recorded” adds a separate entry of the source. Marks after values point to notes of the source that are not given here.

Tests used:
ENaC PHA1B point mutants = conditions: PHA1B point mutants with WT subunits; cited from earlier work
Source text: PHA1B is a very rare inherited disease caused by mutations in the genes encoding the α (SCNN1A), β (SCNN1B), or γ (SCNN1G), subunit of ENaC, resulting in defective transepithelial sodium transport ([28]). […] Loss-of-function mutations in ENaC genes translate into the salt-wasting genetic disease PHA1B ([33], [41]). […] Remarkably, amiloride-sensitive currents were restored ...

αP197fs = assay: Membrane abundance of αP197fs; assay type: cell-based, human; conditions: 200 nM, relative to WT control (=1), own control 1.18 ± 0.05, p < 0.01 vs control
Description: Cell surface biotinylation was performed as previously described ([26]). In brief, A549 cells or transiently transfected HEK-293 cells were grown in 10 cm dishes in 37°C, 5% CO2 incubator in DMEM medium supplemented with 5% FBS. […] Medium was aspirated, and then cells were washed twice with 10 ml ice-cold phosphate-buffered saline (PBS), covered with 2.5 mg EZ-Link Sulfo-NHS-SS-Biotin (Thermo Scientific, Rockford, USA), dissolved in 10 ml ice-cold PBS, and incubated at 4°C with gentle agitation for 30 min. Fifty milliliters of quenching solution were added to cells; then cells were scraped in solution and transferred to fresh 50 ml tube. Cell suspension was centrifuged at 500 × g for 3 min. Supernatant was discarded, and 5 ml of Tris-buffered saline (TBS) was added to the cell pellet. The cell pellet was resuspended and centrifuged at 500 × g for 3 min. Supernatant was discarded and cell pellet was resuspended in lysis buffer containing protease inhibitor cocktail (10 µM pepstatin A, 10 µM phenylmethylsulfonyl fluoride, and 10 µM leupeptin) and transferred to fresh 1.5 ml centrifuge tube. Cell pellet was then homogenized on ice by ultrasonication using 1 s bursts and incubated on ice for at least 30 min. Intact cells and nuclei were pelleted by centrifugation at 10,000 × g for 2 min under cooling conditions. […] Exposed films were scanned and quantified using ImageJ (NIH, MD, USA). […]

αT482fs = assay: Membrane abundance of αT482fs; assay type: cell-based, human
Description: (§1) Cell surface biotinylation was performed as previously described ([26]). In brief, A549 cells or transiently transfected HEK-293 cells were grown in 10 cm dishes in 37°C, 5% CO2 incubator in DMEM medium supplemented with 5% FBS. […] Medium was aspirated, and then cells were washed twice with 10 ml ice-cold phosphate-buffered saline (PBS), covered with 2.5 mg EZ-Link Sulfo-NHS-SS-Biotin (Thermo Scientific, Rockford, USA), dissolved in 10 ml ice-cold PBS, and incubated at 4°C with gentle agitation for 30 min. Fifty milliliters of quenching solution were added to cells; then cells were scraped in solution and transferred to fresh 50 ml tube. Cell suspension was centrifuged at 500 × g for 3 min. Supernatant was discarded, and 5 ml of Tris-buffered saline (TBS) was added to the cell pellet. The cell pellet was resuspended and centrifuged at 500 × g for 3 min. Supernatant was discarded and cell pellet was resuspended in lysis buffer containing protease inhibitor cocktail (10 µM pepstatin A, 10 µM phenylmethylsulfonyl fluoride, and 10 µM leupeptin) and transferred to fresh 1.5 ml centrifuge tube. Cell pellet was then homogenized on ice by ultrasonication using 1 s bursts and incubated on ice for at least 30 min. Intact cells and nuclei were pelleted by centrifugation at 10,000 × g for 2 min under cooling conditions. Pellet was then discarded and supernatant was transferred to fresh tube, incubated overnight with 0.5 ml NeutrAvidin Agarose under gentle rotation at 4°C and centrifuged at 500 × g for 5 min under cooling conditions. Supernatant was then discarded and the pellet washed twice with 200 µl lysis buffer. The biotinylated proteins were eluted with 100 µl sodium dodecyl sulfate (SDS) sample buffer (62.5 mM Tris, pH 6.8, 1% SDS, 10% glycerine, 50 mM dithiothreitol) containing 10 µM E64 at 65°C for 10 min. Sample was then centrifuged at 500 × g for 2 min. Pellet was discarded and supernatant subjected to protein electrophoresis and immunoblotting. The biotinylated proteins were separated under reducing conditions by SDS-PAGE using 7.5% SDS gel along with prestained protein marker (cat. #12949 from Cell Signaling). Proteins were then transferred onto a nitrocellulose membrane (UltraCruzTM […], Santa Cruz Biotechnology, TX, USA) by semi-dry blotting at 25 V for 30 min. Unspecific binding sites were blocked by incubating the membrane overnight at 4°C with 3% FBS in PBS supplemented with 0.02% sodium azide. Membrane was then incubated for 90 min with primary antibody (anti-α-hENaC, anti-δ-hENaC, and anti-β-actin from Sigma Aldrich; anti-β- and anti-γ-hENaC from Santa Cruz Biotechnology). Membrane was washed 5× with 10 ml PBS containing 0.1% Tween-20 (PBST), and corresponding horseradish peroxidase-conjugated secondary antibodies (Santa Cruz Biotechnology) were applied. After 90-min incubation, membrane was washed 3× with PBST and once with PBS. Enhanced chemiluminescence (ECL) substrate (Amersham ECL Plus Western Blotting Detection Reagent, GE Healthcare, Vienna, Austria) was used for visualization. Following incubation for 2 min, membranes were exposed to X-ray films (Amersham Hyperfilm ECL, GE Healthcare). Exposed films were scanned and quantified using ImageJ (NIH, MD, USA).
To study α-ENaC protein abundance in plasma membrane cell surface, biotinylation of HEK-293 cells transiently transfected with WT or different PHA1B mutants was followed by SDS-PAGE and immunoblotting. Expression of frameshift mutants varied markedly. […]

γ-ENaC = conditions: HEK-293, 5 and 10 min; cited from earlier work
αR448fs = assay: Membrane abundance of αR448fs; assay type: cell-based, human; conditions: n = 4
Description: as §1, with “Membrane was washed 5× with 10 ml PBS containing 0.1% Tween-20 (PBST), and corresponding horseradish peroxidase-conjugated secondary antibodies (Santa Cruz Biotechnology) were applied. After 90-min incubation, membrane was washed 3× with PBST and once with PBS. Enhanced chemiluminescence (ECL) substrate (Amersham ECL Plus Western Blotting Detection Reagent, GE Healthcare, Vienna, Austria) was used for visualization. Following incubation for 2 min, membranes were exposed to X-ray films (Amersham Hyperfilm ECL, GE Healthcare).” left out, “USA). […]” for “USA).”

αL576XβD546XγD556X = assay: Amiloride-sensitive current, αL576XβD546XγD556X; assay type: cell-based, human; conditions: lacking all carboxyl termini, preliminary experiments

C[C@@H]1NC(=O)CNC(=O)[C@H](CCC(=O)O)NC(=O)[C@@H]2CCCN2C(=O)[C@H]([C@@H](C)O)NC(=O)[C@H](CCC(=O)O)NC(=O)[C@H](CCCNC(=N)N)NC(=O)[C@H](CCC(N)=O)NC(=O)CNC(=O)[C@@H](N)CSSC[C@@H](C(=O)O)NC(=O)[C@H](Cc2ccc(O)cc2)NC(=O)[C@H](Cc2c[nH]c3ccccc23)NC(=O)[C@@H]2CCCN2C(=O)[C@H](CCCCN)NC(=O)[C@H](C)NC(=O)[C@H](CCC(=O)O)NC1=O [solnatide, L-cysteine, L-cysteinylglycyl-L-glutaminyl-L-arginyl-L-α-glutamyl-L-threonyl-L-prolyl-L-α-glutamylglycyl-L-alanyl-L-α-glutamyl-L-alanyl-L-lysyl-L-prolyl-L-tryptophyl-L-tyrosyl-, cyclic (1→17)-disulfide]
Restoration of amiloride-sensitive currents (ENaC PHA1B point mutants): restored to WT control levels; also recorded: restoring current levels in these mutant ENaC-expressing cells to WT levels or even higher
Membrane abundance, solnatide 5 min (αP197fs): 1.33 ± 0.07
Membrane abundance (αT482fs; glycosylated αT482fs, 200 nM solnatide, 5 min, n = 4): even more after 5 min of solnatide treatment
Increase in membrane abundance after PNGase F (αT482fs; αT482fs, 200 nM solnatide, 100 units PNGase F, n = 4): completely abolished in deglycosylated mutants; also recorded: after PNGase F treatment no differences can be observed
Membrane abundance after solnatide (αT482fs; αT482fs, HEK-293, discussion, no time stated): the membrane abundance increasing even further following exposure to solnatide
Membrane abundance, solnatide 5 min (αT482fs; αT482fs, 200 nM, 5 min, relative to WT control (=1), own control 4.67 ± 0.27, p < 0.001 vs control, n = 4): 6.23 ± 0.24***
Membrane abundance, solnatide 10 min (αT482fs; αT482fs, 200 nM, 10 min, relative to WT control (=1), own control 4.67 ± 0.27, n = 4): 4.58 ± 0.30
Membrane abundance, solnatide (γ-ENaC): only slight
Membrane abundance (αR448fs; glycosylated αR448fs, 200 nM solnatide, 5 min): highly increased after 5 min of solnatide treatment
Increase in membrane abundance after PNGase F (αR448fs; αR448fs, 200 nM solnatide, 100 units PNGase F): completely abolished in deglycosylated mutants; also recorded: after PNGase F treatment no differences can be observed
Membrane abundance, solnatide 5 min (αR448fs; αR448fs, 200 nM, 5 min, relative to WT control (=1), own control 1.32 ± 0.10, p < 0.001 vs control): 5.88 ± 0.32***
Membrane abundance, solnatide 10 min (αR448fs; αR448fs, 200 nM, 10 min, relative to WT control (=1), own control 1.32 ± 0.10): 1.30 ± 0.12
Effect of solnatide on current (words) (αL576XβD546XγD556X): an even slighter, non-significant increase of current
